The values below come from ChEMBL document CHEMBL3217682, “Discovery of highly potent antifungal triazoles by structure-based lead fusion” (2011).

Each structure is given as a SMILES string. ≈ marks a conversion by molar mass, not a printed value.

Type in all cases: functional
Experiment [1] concerns Candida tropicalis. As to the kind of experiment: Antifungal activity against Candida tropicalis assessed as turbidity after 24 hrs by serial dilution method.
Another experiment deals with Candida albicans. As to the kind of experiment: Antifungal activity against Candida albicans assessed as turbidity after 24 hrs by serial dilution method.
The subject of experiment [2] is Kluyveromyces marxianus. As to the kind of experiment: Antifungal activity against Candida kefyr assessed as turbidity after 24 hrs by serial dilution method.
Another experiment has as its system Trichophyton rubrum. As to the kind of experiment: Antifungal activity against Trichophyton rubrum assessed as turbidity after 24 to 72 hrs by serial dilution method.
The next experiment concerns Aspergillus fumigatus. As to the kind of experiment: Antifungal activity against Aspergillus fumigatus assessed as turbidity after 7 days by serial dilution method. As to conditions: 168 h.
Experiment [3] concerns Candida parapsilosis. As to the kind of experiment: Antifungal activity against Candida parapsilosis assessed as turbidity after 24 hrs by serial dilution method. To be noted: Lodderomyces parapsilosis.
A further experiment deals with Cryptococcus neoformans. As to the kind of experiment: Antifungal activity against Cryptococcus neoformans assessed as turbidity after 72 hrs by serial dilution method.
The test system of experiment [4] is Candida tropicalis. As to the kind of experiment: Ratio of fluconazole MIC80 to compound MIC80 for Candida tropicalis.
In experiment [5] the test system is Kluyveromyces marxianus. As to the kind of experiment: Ratio of fluconazole MIC80 to compound MIC80 for Candida kefyr.
Experiment [6] has as its system Candida parapsilosis. As to the kind of experiment: Ratio of fluconazole MIC80 to compound MIC80 for Candida parapsilosis.

As to `CN(CC(O)(Cn1cncn1)c1ccc(F)cc1F)C1CCN(Cc2ccccc2)CC1` (stereo not drawn), the MIC80 came out at 2.26 µM (≈ 0.998 µg/mL) with Candida tropicalis [1]; 0.57 µM (≈ 0.252 µg/mL) with Candida albicans; 2.26 µM (≈ 0.998 µg/mL) in the experiment on Kluyveromyces marxianus [2]; 2.26 µM (≈ 0.998 µg/mL) with Trichophyton rubrum; 145 µM (≈ 64 µg/mL) with Aspergillus fumigatus; 0.57 µM (≈ 0.252 µg/mL) with Candida parapsilosis [3]. Also, in the experiment on Cryptococcus neoformans, the MIC80 amounted to 2.26 µM (≈ 0.998 µg/mL).

`OC(CN1CCC(OCc2ccccc2)CC1)(Cn1cncn1)c1ccc(F)cc1F` (stereo not drawn): the Ratio in the experiment on Candida tropicalis [4], in the experiment on Kluyveromyces marxianus [5] and in the experiment with Candida parapsilosis [6] was 82 throughout. In addition, the MIC80 with Candida tropicalis [1] was determined as 0.04 µM (≈ 0.0171 µg/mL); in the experiment on Candida albicans, 0.01 µM (≈ 0.00428 µg/mL); in the experiment on Kluyveromyces marxianus [2] it was 0.15 µM (≈ 0.0643 µg/mL); in the experiment on Trichophyton rubrum, 0.15 µM (≈ 0.0643 µg/mL); in the experiment with Aspergillus fumigatus it was 2.33 µM (≈ 0.998 µg/mL); with Candida parapsilosis [3], 0.04 µM (≈ 0.0171 µg/mL). The MIC80 with Cryptococcus neoformans came to 0.04 µM (≈ 0.0171 µg/mL).

For the molecule `OC(CN1CCC(OCc2ccccc2Cl)CC1)(Cn1cncn1)c1ccc(F)cc1F` (stereo not drawn), the MIC80 with Candida tropicalis [1] stood at 0.14 µM (≈ 0.0648 µg/mL); in the experiment on Candida albicans it was 0.03 µM (≈ 0.0139 µg/mL); in the experiment with Kluyveromyces marxianus [2] it was 0.54 µM (≈ 0.25 µg/mL); with Trichophyton rubrum it was 0.14 µM (≈ 0.0648 µg/mL); in the experiment with Aspergillus fumigatus it was 2.16 µM (≈ 1 µg/mL); in the experiment on Candida parapsilosis [3] it was 0.03 µM (≈ 0.0139 µg/mL). The MIC80 in the experiment on Cryptococcus neoformans turned out to be 0.03 µM (≈ 0.0139 µg/mL).

As for `OC(CN1CCC(OCc2ccc(Cl)cc2Cl)CC1)(Cn1cncn1)c1ccc(F)cc1F` (stereo not drawn), the MIC80 in the experiment with Candida tropicalis [1] came out at 0.13 µM (≈ 0.0647 µg/mL); in the experiment with Candida albicans it was 0.13 µM (≈ 0.0647 µg/mL); in the experiment on Kluyveromyces marxianus [2], 0.5 µM (≈ 0.249 µg/mL); with Trichophyton rubrum it was 0.13 µM (≈ 0.0647 µg/mL); with Aspergillus fumigatus, 2.01 µM (≈ 1 µg/mL); in the experiment with Candida parapsilosis [3] it was 0.03 µM (≈ 0.0149 µg/mL). Besides, the MIC80 with Cryptococcus neoformans worked out at 0.03 µM (≈ 0.0149 µg/mL).

As for `OC(CN1CCC(OCc2ccc(Cl)c(Cl)c2)CC1)(Cn1cncn1)c1ccc(F)cc1F` (stereo not drawn), the MIC80 in the experiment with Candida tropicalis [1] stood at 0.13 µM (≈ 0.0647 µg/mL); with Candida albicans, 0.13 µM (≈ 0.0647 µg/mL); in the experiment on Kluyveromyces marxianus [2], 0.5 µM (≈ 0.249 µg/mL); in the experiment with Trichophyton rubrum, 0.03 µM (≈ 0.0149 µg/mL); in the experiment with Aspergillus fumigatus, 2.01 µM (≈ 1 µg/mL); in the experiment on Candida parapsilosis [3], 0.03 µM (≈ 0.0149 µg/mL). The MIC80 in the experiment with Cryptococcus neoformans stood at 0.03 µM (≈ 0.0149 µg/mL).

As for `OC(CN1CCC(OCc2cccc(Cl)c2)CC1)(Cn1cncn1)c1ccc(F)cc1F` (stereo not drawn), the MIC80 in the experiment on Candida tropicalis [1] was determined as 0.14 µM (≈ 0.0648 µg/mL); in the experiment on Candida albicans it was 0.14 µM (≈ 0.0648 µg/mL); in the experiment with Kluyveromyces marxianus [2], 0.54 µM (≈ 0.25 µg/mL); in the experiment on Trichophyton rubrum, 0.03 µM (≈ 0.0139 µg/mL); in the experiment on Aspergillus fumigatus it was 2.16 µM (≈ 1 µg/mL); in the experiment on Candida parapsilosis [3], 0.03 µM (≈ 0.0139 µg/mL). For the same molecule, in the experiment on Cryptococcus neoformans, the MIC80 was determined as 0.03 µM (≈ 0.0139 µg/mL).

In the case of `N#Cc1ccc(COC2CCN(CC(O)(Cn3cncn3)c3ccc(F)cc3F)CC2)cc1` (stereo not drawn), the MIC80 in the experiment with Candida tropicalis [1] came to 0.14 µM (≈ 0.0635 µg/mL); with Candida albicans, 0.03 µM (≈ 0.0136 µg/mL); in the experiment on Kluyveromyces marxianus [2], 0.55 µM (≈ 0.249 µg/mL); with Trichophyton rubrum it was 0.03 µM (≈ 0.0136 µg/mL); with Aspergillus fumigatus it was 0.55 µM (≈ 0.249 µg/mL); in the experiment on Candida parapsilosis [3] it was 0.01 µM (≈ 0.00453 µg/mL). Besides, in the experiment with Cryptococcus neoformans, the MIC80 came to 0.03 µM (≈ 0.0136 µg/mL).

Turning to `OC(CN1CCC(OCc2cccc(Br)c2)CC1)(Cn1cncn1)c1ccc(F)cc1F` (stereo not drawn), the Ratio in the experiment with Candida tropicalis [4], in the experiment on Kluyveromyces marxianus [5] and in the experiment with Candida parapsilosis [6] was 82 each time. For the same molecule, the MIC80 in the experiment on Candida tropicalis [1] came to 0.12 µM (≈ 0.0609 µg/mL); in the experiment with Candida albicans, 0.01 µM (≈ 0.00507 µg/mL); in the experiment on Kluyveromyces marxianus [2], 0.49 µM (≈ 0.249 µg/mL); with Trichophyton rubrum it was 0.12 µM (≈ 0.0609 µg/mL); with Aspergillus fumigatus it was 1.97 µM (≈ 1 µg/mL); in the experiment on Candida parapsilosis [3] it was 0.12 µM (≈ 0.0609 µg/mL). In addition, in the experiment on Cryptococcus neoformans, the MIC80 is 0.12 µM (≈ 0.0609 µg/mL).

On to `OC(CN1CCC(OCc2ccccc2F)CC1)(Cn1cncn1)c1ccc(F)cc1F` (stereo not drawn), for which the Ratio with Candida tropicalis [4], in the experiment with Kluyveromyces marxianus [5] and in the experiment with Candida parapsilosis [6] was 82 throughout. The MIC80 in the experiment with Candida tropicalis [1] was found to be 0.03 µM (≈ 0.0134 µg/mL); in the experiment with Candida albicans, 0.01 µM (≈ 0.00446 µg/mL); in the experiment on Kluyveromyces marxianus [2] it was 0.56 µM (≈ 0.25 µg/mL); in the experiment on Trichophyton rubrum, 0.14 µM (≈ 0.0625 µg/mL); with Aspergillus fumigatus it was 2.24 µM (≈ 1 µg/mL); in the experiment on Candida parapsilosis [3] it was 0.03 µM (≈ 0.0134 µg/mL). Further, in the experiment with Cryptococcus neoformans, the MIC80 stood at 0.03 µM (≈ 0.0134 µg/mL).

Turning to `OC(CN1CCC(OCc2ccc(F)cc2)CC1)(Cn1cncn1)c1ccc(F)cc1F` (stereo not drawn), the MIC80 in the experiment on Candida tropicalis [1] was 0.03 µM (≈ 0.0134 µg/mL); in the experiment on Candida albicans, 0.14 µM (≈ 0.0625 µg/mL); in the experiment with Kluyveromyces marxianus [2], 0.56 µM (≈ 0.25 µg/mL); with Trichophyton rubrum, 0.03 µM (≈ 0.0134 µg/mL); with Aspergillus fumigatus, 2.24 µM (≈ 1 µg/mL); in the experiment with Candida parapsilosis [3], 0.03 µM (≈ 0.0134 µg/mL). Further, in the experiment on Cryptococcus neoformans, the MIC80 amounted to 0.03 µM (≈ 0.0134 µg/mL).

Consider `CN(CCCCOc1ccccc1)CC(O)(Cn1cncn1)c1ccc(F)cc1F` (stereo not drawn), for which the MIC80 in the experiment with Candida tropicalis [1] is 0.04 µM (≈ 0.0167 µg/mL); in the experiment on Candida albicans, 0.04 µM (≈ 0.0167 µg/mL); in the experiment with Kluyveromyces marxianus [2], 0.6 µM (≈ 0.25 µg/mL); in the experiment on Trichophyton rubrum, 0.6 µM (≈ 0.25 µg/mL); in the experiment on Aspergillus fumigatus, > 154 µM; with Candida parapsilosis [3], 0.15 µM (≈ 0.0625 µg/mL). Moreover, in the experiment with Cryptococcus neoformans, the MIC80 is 0.15 µM (≈ 0.0625 µg/mL).

With `OC(Cn1cncn1)(Cn1cncn1)c1ccc(F)cc1F` [FLUCONAZOLE], the MIC80 with Candida tropicalis [1] is 3.26 µM (≈ 0.998 µg/mL); in the experiment with Candida albicans, 0.82 µM (≈ 0.251 µg/mL); in the experiment on Kluyveromyces marxianus [2], 3.26 µM (≈ 0.998 µg/mL); in the experiment on Trichophyton rubrum, 3.26 µM (≈ 0.998 µg/mL); with Aspergillus fumigatus it was > 209 µM; in the experiment with Candida parapsilosis [3], 0.82 µM (≈ 0.251 µg/mL). Besides, the MIC80 in the experiment on Cryptococcus neoformans was found to be 0.2 µM (≈ 0.0613 µg/mL).

One may read the MIC80 as an inhibitory concentration at the 80% level, which refers to growth in some studies and to a panel of isolates in others.
